PMC7719179, “Small molecule inhibition of Dynamin-dependent endocytosis targets multiple niche signals and impairs leukemia stem cells” (Nature Communications, 2020)
Where “and” joins values, the source holds several entries; their conditions need not be identical. Equal values may be shown once.

Tests used:
pre-LSC self-renewal = assay: Serial transplantation assay of thymocytes from treated Lmo2^Tg mice; assay type: in vivo, mouse
Description: For primary transplantation, single-cell suspension of 2 × 10^6 thymocytes were intravenously injected into sublethally irradiated (650 Rads) isogenic Ly5.1 (Cd45.1) mice. Analysis was performed 4 weeks after transplantation and 5 × 10^6 thymocytes harvested from recipients were subsequently injected into sublethally irradiated (650 Rads) Ly5.1 (Cd45.1) recipients for the secondary and tertiary transplantations, as previously described.
Supplementary Figure 3. In vivo effect of Dynole 34-2. a, Treatment schematic and pharmacokinetic analysis of serum levels (µ M) of Dynole 34-2 at different time points (15, 30, 60, 120 and 240 minutes) following a single intraperitoneal injection (grey arrow) in 5 recipients (A, B, C, D, E). Average maximum concentration (Cmax), the time taken to reach this maximum concentration (Tmax), and the half-life (T 1/2) of Dynole 34-2 in the serum of treated mice are indicated.
Average concentration for each time point is indicated (bar). b , Treatment schematic and fold expansion of donor-derived L mo2-transgenic DN3a thymocytes enumerated in the thymus of primary (I), secondary (II) and tertiary (III) recipients, assessed four weeks after transplantation of cells harvested from 5 independent mice per cohort of donors. Number of recipients engrafted for each condition is indicated. Mean ± SD (N = number of independent mice analysed), Student’s t-test;

[1] = system: leukemogenicity of pre-LSCs; assay: Time to leukemia of recipients injected with thymocytes from treated Lmo2^Tg mice; assay type: in vivo, mouse; conditions: for Time to leukemia / Time to leukemia (days): * non-leukemic at endpoint
Description: Fold expansion was calculated by dividing the absolute output number of donor-derived DN3a cells harvested at the experimental endpoint by the respective number of DN3a thymocytes injected in each recipient. […] Leukemia-propagating cell frequency was calculated by applying Poisson statistics using the ELDA: Extreme Limiting Dilution Analysis software (Walter and Eliza Hall Institute Bioinformatics, Parkville VIC, Australia)[96]. Limiting dilution transplantations were performed independently from any other transplantation assays, using thymocytes from three different Lmo2^Tg mice for each cohort. […] Log-rank (Mantel -Cox)

[2] = system: ETP12 and ALL8 patient-derived xenografts; assay: Survival (Kaplan-Meier) and leukemia growth delay in ETP12 and ALL8 xenograft recipients; assay type: in vivo, human
Description: Patient-derived xenograft models were established as previously described[97],[98]. All experiments were pre-approved by the Human Research Ethics Committee of the University of New South Wales (UNSW), the UNSW Animal Care and Ethics Committee, the Alfred Health Human Ethics Committee and the AMREP Animal Ethics Committee. For transplantation assays, 10^6 splenocytes harvested from successfully engrafted primary human ETP-ALL or T-ALL xenografts were injected into nonobese diabetic/severe combined immunodeficient (NOD.Cg-Prkdc^scid, also termed NOD/SCID) or NOD/SCID/Il2rg^tm1wjl/SzJ (NSG) mice[99]. Moreover, 1.5 × 10^6 cells splenocytes harvested from successfully engrafted patient-derived AML xenografts were injected into nonobese diabetic/severe immunodeficient (NOD.Cg-Rag1^tm1MomIl2rg^tm1wjl/SzJ, also termed NRG) mice expressing human IL-3, human GM-CSF and human SCF from the SGM3 triple transgene (NRGS)[100]. Engraftment into recipients was monitored by FACS analysis of peripheral blood as previously described. […] Both males and females were used. […] Kaplan–Meier survival and statistical analyses were performed using GraphPad Prism. 6.0 software (GraphPad Software, Inc.). […]
(blue circles) and ALL8 (red open circles) 24 hours after the last dose of drugs was administered.
therapy. Median is indicated (bar) with Mean ± SEM indicated for ETP12 and ALL8, 2-way ANOVA
period of administration is indicated in light grey.

in vitro = conditions: mouse, Relative % viable cells
Description: Pre-leukemic and leukemic thymocytes were purified by flow cytometry and co-cultured on GFP-positive OP9 and OP9-DL1 stromal cell lines, as described previously. Thymocytes were co-cultured in reconstituted alpha-MEM medium (#12318, Gibco, Grand Island NY, USA) supplemented with 20% FCS (#12318), HEPES 10 mM (#15630-080), sodium pyruvate 1 mM (#11360-070), β-mercaptoethanol 55 μM (#21985-023), Glutamax 2 mM (#15750-060), 1% Penicillin/Streptomycin (#15140-122), 5 ng/mL rmFLT-3 ligand (#250-31 L, Pepro Tech), 5 ng/mL rmIL-7 (#217-17, Pepro Tech) and 25 ng/mL rmSCF (#250-03, Pepro Tech). After 48 h of co-culture, thymocytes were counted and analysed by FACS. […]
viability of wild-type (WT), Lmo2 Tg, Lmo2Tg;STAT5-CA Tg and Lmo2Tg;N1-ICD Tg DN3a thymocytes […]
normalized to cells treated with vehicle (%DMSO). Mean ± SEM of n=4 biological replicates. b, […]
thymocytes from 6-week old wild-type (WT), Lmo2 Tg, Lmo2Tg;STAT5-CATg and Lmo2Tg ;N1-ICD Tg mice. Mean ± SD of n=4 biological replicates are shown. 2-way ANOVA with Tukey’s correction test; […]
(1 picture or pasted object on this page, not shown here)
*P<0.05, *** P<0.001 compared to WT; #P<0.05, ##P<0.01, ###P<0.001 compared to L mo2Tg. c, Levels of pStat5 (left) after stimulation with IL-7 , as well as Hes1 expression (right) after co-culture on OP9- […]
(0.2 µM), Ruxolitinib (0.2 µM) and DAPT (0.1 µM). Unstimulated cells were used as negative controls (dashed line). Student’s t -test, ** P<0.01, *** P<0.001 compared to unstimulated cells. MFI ± SEM, 1-way ANOVA with Tukey’s correction test; **P<0.01, *** P<0.001 compared to vehicle. d, Clonogenic assay of normal murine hematopoietic stem and progenitor cells (HSPCs) cultured in the presence […]
± SD, Student’s t -test ( n=4) **P<0.01 compared to vehicle. e, Relative viability of wild-type (WT), […]
2 (0.2 µM), Ruxolitinib (0.2 µM) and DAPT (0.1 µM) for 48 hours. Viability was normalized to cells treated with vehicle (%DMSO, which was reported as 100). Mean ± SEM, 2-way ANOVA with Tukey’s correction test, **P<0.01, *** P<0.001 compared to vehicle.

| SMILES | repopulating activity in serial transplantation (pre-LSC self-renewal; tertiary recipients, result in words) | Fold expansion DN3a cells (pre-LSC self-renewal; transplant III) | Time to leukemia ([1]; Supplementary Figure 3h) | Time to leukemia (days) ([1]; Supplementary Figure 3h) | Time to leukemia ([1]; Supplementary Figure 4d) | Time to leukemia (days) ([1]; Supplementary Figure 4d) | leukemogenic potential of pre-LSCs / progression to leukemia in recipients ([1]; recipients of thymocytes from treated Lmo2^Tg mice, result in words) | survival of recipients, single agent ([2]; ETP12 and ALL8 xenografts, result in words) | Leukemia Growth Delay (LGD) Over Vehicle ([2]; PDX ALL8) [days] | Leukemia Growth Delay (LGD) Over Vehicle ([2]; PDX ETP12) [days] | Time to leukemia ([2]; PDX ETP12) | viability at 48 h, 0.04 mM (in vitro) [%] | viability at 48 h, 0.2 mM (in vitro) [%] |
| --- | --- | --- | --- | --- | --- | --- | --- | --- | --- | --- | --- | --- | --- |
| CCCCCCCCNC(=O)C(C#N)=Cc1cn(CCCN(C)C)c2ccccc12 [Dynole 34-2, 2-Cyano-N-octyl-3-(1-(3-dimethylaminopropyl)-1H-indol-3-yl)-acrylamide] | complete loss of repopulating activity | 0.1 fold and 0.11 fold | 138 days and 132 days and 116 days and 149 days | > 210* days | 170 days and 151 days and 119 days and 142 days | > 210* days | delayed progression to leukemia | significant survival advantage | 2.62 | 7.34 | 4.63 weeks and 5.6 weeks and 4.86 weeks and 4.8 weeks and 5.54 weeks and 4.7 weeks and 4.81 weeks and 6.67 weeks | – | – |
| N#CC[C@H](C1CCCC1)n1cc(-c2ncnc3[nH]ccc23)cn1 [Ruxolitinib] | – | – | – | – | – | – | – | – | – | – | – | 83.2 | 39.6 |
